According to PubChem BioAssay AID220 (DTP/NCI, 2004):
“And” between values parts separate entries of the source, which are not always exact repeats. Equal values may be shown once. Inconclusive results are not listed.

Tested on: CD8F1 mice, subcutaneous mammary adenocarcinoma, T/C%
Experiment: NCI In Vivo Anticancer Drug Screen. Data for tumor model Mammary Adenocarcinoma CD8F1 (subcutaneous) in CD8F1
Conditions: higher = larger tumour
Procedure, shortened: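 Mice carrying transplanted tumors received test compound, and survival or tumor size was recorded. Each value is the treated-group measurement divided by the corresponding measurement in vehicle-dosed controls.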

[1] = endpoint: median tumor weight change, dose: 15.6 mg/kg/injection, schedule: Q01DX001 (ip), vehicle: saline with Tween-80
[2] = endpoint: median tumor weight change, dose: 15.62 mg/kg/injection, schedule: Q01DX001 (ip), vehicle: saline with Tween-80

Compound: CNNCc1ccc(C(=O)NC(C)C)cc1
- T/C (endpoint: median tumor weight (est.), dose: 16.0 mg/kg/injection, schedule: Q07DX005 (ip), vehicle: saline): 207 % of control and 101 % of control

Compound: COc1cccc2c1C(=O)c1c(O)c3c(c(O)c1C2=O)CC(O)(/C(C)=N/NC(=O)CCCCC(=O)N/N=C(\C)C1(O)Cc2c(O)c4c(c(O)c2C(OC2CC(N)C(O)C(C)O2)C1)C(=O)c1c(OC)cccc1C4=O)CC3OC1CC(N)C(O)C(C)O1 (stereo not drawn)
- T/C (endpoint: median tumor weight change, dose: 16.0 mg/kg/injection, schedule: Q01DX001 (ip), vehicle: water): 113 % of control
- T/C (endpoint: median tumor weight change, dose: 31.0 mg/kg/injection, schedule: Q01DX001 (ip), vehicle: water): 36 % of control

Compound: O=C(O)C1CC1.[Ag]
- T/C (endpoint: median tumor weight (est.), dose: 6.25 mg/kg/injection, schedule: Q07DX005 (ip), vehicle: distilled water + Tween-80): 63 % of control
- T/C (endpoint: median tumor weight (est.), dose: 12.5 mg/kg/injection, schedule: Q07DX005 (ip), vehicle: distilled water + Tween-80): 88 % of control

Compound: CCN(C)N=Nc1ccc(C(N)=O)cc1
- T/C (endpoint: median tumor weight change, dose: 50.0 mg/kg/injection, schedule: Q01DX001 (ip), vehicle: Klucel (hydroxypropylcellulose) (HPC)): 51 % of control
- T/C (endpoint: median tumor weight change, dose: 62.5 mg/kg/injection, schedule: Q01DX001 (ip), vehicle: Klucel (hydroxypropylcellulose) (HPC)): 92 % of control
- T/C (endpoint: median tumor weight change, dose: 100.0 mg/kg/injection, schedule: Q01DX001 (ip), vehicle: Klucel (hydroxypropylcellulose) (HPC)): 72 % of control
- T/C (endpoint: median tumor weight change, dose: 125.0 mg/kg/injection, schedule: Q01DX001 (ip), vehicle: Klucel (hydroxypropylcellulose) (HPC)): 91 % of control
- T/C (endpoint: median tumor weight change, dose: 200.0 mg/kg/injection, schedule: Q01DX001 (ip), vehicle: Klucel (hydroxypropylcellulose) (HPC)): 44 % of control
- T/C (endpoint: median tumor weight change, dose: 250.0 mg/kg/injection, schedule: Q01DX001 (ip), vehicle: Klucel (hydroxypropylcellulose) (HPC)): 24 % of control
- T/C (endpoint: median tumor weight change, dose: 400.0 mg/kg/injection, schedule: Q01DX001 (ip), vehicle: Klucel (hydroxypropylcellulose) (HPC)): 21 % of control

Compound: CCCCCC1c2cc(O)ccc2OC1N1CCOCC1 (stereo not drawn)
- T/C (endpoint: median tumor weight change, dose: 250.0 mg/kg/injection, schedule: Q01DX001 (ip), vehicle: saline with Tween-80): 204 % of control and 73 % of control

Compound: CC(C)(Oc1ccc(-c2cccc3ccccc23)cc1)C(=O)O
- T/C (endpoint: median tumor weight (est.), dose: 25.0 mg/kg/injection, schedule: Q07DX005 (ip), vehicle: Klucel (hydroxypropylcellulose) (HPC)): 48 % of control
- T/C (endpoint: median tumor weight (est.), dose: 50.0 mg/kg/injection, schedule: Q07DX005 (ip), vehicle: Klucel (hydroxypropylcellulose) (HPC)): 52 % of control
- T/C (endpoint: median tumor weight (est.), dose: 100.0 mg/kg/injection, schedule: Q07DX005 (ip), vehicle: Klucel (hydroxypropylcellulose) (HPC)): 57 % of control
- T/C (endpoint: median tumor weight (est.), dose: 200.0 mg/kg/injection, schedule: Q07DX005 (ip), vehicle: Klucel (hydroxypropylcellulose) (HPC)): 79 % of control
- T/C (endpoint: median tumor weight (est.), dose: 400.0 mg/kg/injection, schedule: Q07DX005 (ip), vehicle: Klucel (hydroxypropylcellulose) (HPC)): 39 % of control

Compound: CN(C)CCC(=O)C(=Cc1ccc(O)cc1)C(=O)CCN(C)C
- T/C (endpoint: median tumor weight change, dose: 50.0 mg/kg/injection, schedule: Q01DX001 (ip), vehicle: suspension in saline): 96 % of control
- T/C (endpoint: median tumor weight change, dose: 62.5 mg/kg/injection, schedule: Q01DX001 (ip), vehicle: saline): 90 % of control
- T/C (endpoint: median tumor weight change, dose: 100.0 mg/kg/injection, schedule: Q01DX001 (ip), vehicle: suspension in saline): 87 % of control
- T/C (endpoint: median tumor weight change, dose: 125.0 mg/kg/injection, schedule: Q01DX001 (ip), vehicle: saline): 62 % of control

Compound: NC(=O)/C=C/c1c[nH]c2nccnc12
- T/C (endpoint: median tumor weight change, dose: 31.25 mg/kg/injection, schedule: Q01DX001 (ip), vehicle: water): 124 % of control
- T/C (endpoint: median tumor weight change, dose: 62.5 mg/kg/injection, schedule: Q01DX001 (ip), vehicle: water): 73 % of control
- T/C (endpoint: median tumor weight change, dose: 125.0 mg/kg/injection, schedule: Q01DX001 (ip), vehicle: water): 58 % of control

Compound: CCOC1=Cc2c(oc3c(C(C)(C)C)cc(OCC)cc23)OC(C(C)(C)C)=C1
- T/C [1]: 114 % of control
- T/C [2]: 98 % of control
- T/C (endpoint: median tumor weight change, dose: 62.5 mg/kg/injection, schedule: Q01DX001 (ip), vehicle: saline with Tween-80): 85 % of control and 106 % of control

Compound: CC(C)(C)N1CC1CNC(=O)C(=O)NCC1CN1C(C)(C)C (stereo not drawn)
- T/C [1]: 50 % of control
- T/C [2]: 30 % of control
- T/C (endpoint: median tumor weight change, dose: 31.25 mg/kg/injection, schedule: Q01DX001 (ip), vehicle: saline with Tween-80): 30 % of control and 37 % of control

Compound: CC(C)CCCCCCCCCCCCC(=O)NCC(=O)NC1C(O)C(O)C(Nc2ncnc3nc[nH]c23)OC1C(O)CO (stereo not drawn)
- T/C (endpoint: median tumor weight (est.), dose: 1.0 mg/kg/injection, schedule: Q07DX005 (ip), vehicle: Klucel (hydroxypropylcellulose) (HPC)): 169 % of control
- T/C (endpoint: median tumor weight (est.), dose: 2.0 mg/kg/injection, schedule: Q07DX005 (ip), vehicle: Klucel (hydroxypropylcellulose) (HPC)): 51 % of control and 76 % of control
